Measured values taken from patent publication US12024510B2, “Pyrazolopyridine-diamides, their use as insecticide and processes for preparing the same” (PI INDUSTRIES LTD., priority 2017, dated 2024).

Experiments:
Format in all cases: in vivo
[1] = system: Spodoptera litura; experiment: Spodoptera litura diet incorporation method; settings: third instar larvae, dead and moribund combined, 96 h after release
Protocol: (§1) Test Solutions were Prepared According to the Procedure Described Herein Below (500 PPM):
(§2) • 1. Eppendorf Vortex mixer (ThermoMixer C) and 1.5 mL Eppendorf tubes • 2. Zirconia (Zirconium-Yttrium) beads having diameter of 0.8 to 1.0 mm • 3. Microscope • 4. Beaker 100 mL • 5. Micro-pipette Reagents: • 1. Surfactant Solution • 2. De-mineralized (DM) Water • 1. Weigh 10 mg of the compound of the present invention to be tested in an Eppendorf Tube. • 2. Add 200 mg of the Surfactant Solution into the tube. • 3. Add 600 mg of Zirconia beads into the above mixture. • 4. Fix the tube in Eppendorf Vortex mixer and start vortexing at 2000 rpm. • 5. Mix on Vortex mixer for 30 minutes. After 30 minutes, observe the sample over a microscope at 400× resolution. • 6. If the Maximum particle size is more than 5 μm or average particle size is more than 2 μm or the particle size distribution is uneven, continue vortexing for another 30 minutes and again check the particle size using the microscope. Continue till the average particle size is below 2 microns. • 7. When the required particle size is achieved, add 1.0 mL DM water into the tube, close the cap, shake the tube thoroughly and transfer the contents, along with the beads, into a beaker. • 8. To rinse the tube, add another 1.0 mL of DM water into the tube, close the cap, shake well and transfer this into the same beaker. • 9. Repeat Step no. 8 one more time so that the tube is rinsed well and the compound of the present invention to be tested is transferred to the beaker. • 10. Add 16.8 mL of DM water into the beaker and stir well. • 11. The homogeneous dispersion can then be decanted into a glass vial, immediately, to separate the Zirconia beads. • 12. Immediately use this sample for biological testing. • 13. Further dilutions can be prepared by taking appropriate quantity of the aliquot of Step 10, immediately after stirring, and diluting as per requirement. The sample solution must be well mixed just before biological testing.
(§3) Diet incorporation method was used, in which semi-synthetic diet was incorporated into the test solution when the temperature is approximately 50° C. in the bioassay containers and stirred thoroughly for properly mixing and then was allowed to cool for 30 min. The solidified diet was cut into equal pieces, and then each piece was transferred in one cell in Bio-assay trays. A single third instar starved larva was released into each of these cells of bioassay trays and the tray was covered with the lid. The bio-assay trays were kept under laboratory conditions at a temperature of 25° C. and Relative Humidity of 70%. Observations on dead, moribund and live larvae were recorded at 96 h after the release of larvae. Percent mortality was calculated by combining dead and moribund larvae. The following compound numbers

[2] = system: Plutella xylostella; experiment: whole plant or invertebrate; settings: foliar, cabbage leaf dip, second instar larvae, dead and moribund combined, 72 h after release
Protocol: as §1, §2
Leaf dip method was used for screening, wherein the required quantity of the compounds were weighed and dissolved in the test solution into the tube and vortex at 2000 rpm with Zirconia beads for 90 min for proper mixing, then mixed with 0.01% Triton-X solution to get the desired test concentration. Cabbage leaves were dipped in the solution for 10 seconds, shade dried for 20 min and then transferred to bioassay trays. Single second instar larva was released into each cell and the tray was covered with lid. The bio-assay trays were kept under laboratory conditions at a temperature of 25° C. and relative humidity of 70%. Observations on dead, moribund and live larvae were recorded at 72 h after the release. Percent mortality was calculated by combining dead and moribund larvae. The following compound num.

[3] = system: Helicoverpa armigera; experiment: Helicoverpa armigera diet incorporation method; settings: third instar larvae, dead and moribund combined, 96 h after release
Protocol: as §1, §2
as §3, with “which and” for “which”

Row | Compound | mortality at 300 ppm [1] | mortality at 300 ppm [2] | mortality at 300 ppm [3]
1 | Cc1cc2ccnn2c(C(=O)NC2CSC2)c1NC(=O)c1cc(Br)nn1-c1ncccc1Cl [Compound 207, 6-(3-bromo-1-(3-chloropyridin-2-yl)-1H-pyrazole-5-carboxamido)-5-methyl-N-(thietan-3-yl)pyrazolo[1,5-a]pyridine-7-carboxamide] | > 70% | > 70% | –
2 | Cc1cc2ccnn2c(C(=O)NCC2CCCO2)c1NC(=O)c1cc(Br)nn1-c1ncccc1Cl (racemic) [Compound 189, rac-(R)-6-(3-bromo-1-(3-chloropyridin-2-yl)-1H-pyrazole-5-carboxamido)-5-methyl-N-((tetrahydrofuran-2-yl)methyl)pyrazolo[1,5-a]pyridine-7-carboxamide] | > 70% | > 70% | –
3 | Cc1cc2ccnn2c(C(=O)NC2CC2)c1NC(=O)c1cc(OC2CSC2)nn1-c1ncccc1Cl [Compound 145, 6-(1-(3-chloropyridin-2-yl)-3-(thietan-3-yloxy)-1H-pyrazole-5-carboxamido)-N-cyclopropyl-5-methylpyrazolo[1,5-a]pyridine-7-carboxamide] | > 70% | – | –
4 | CCCC(C)NC(=O)c1c(NC(=O)c2cc(OC)nn2-c2ncccc2Cl)c(C)cc2ccnn12 (stereo not shown) [Compound 184, 6-(1-(3-chloropyridin-2-yl)-3-methoxy-1H-pyrazole-5-carboxamido)-5-methyl-N-(pentan-2-yl)pyrazolo[1,5-a]pyridine-7-carboxamide] | > 70% | > 70% | –
5 | CCNC(=O)c1c(NC(=O)c2cc(N3CC(F)(F)C3)nn2-c2ncccc2Cl)c(C)cc2ccnn12 [Compound 83, 6-(1-(3-chloropyridin-2-yl)-3-(3,3-difluoroazetidin-1-yl)-1H-pyrazole-5-carboxamido)-N-ethyl-5-methylpyrazolo[1,5-a]pyridine-7-carboxamide] | > 70% | – | –
6 | Cc1cc2ccnn2c(C(=O)NCC#N)c1NC(=O)c1cc(C(F)(F)F)nn1-c1ncccc1Cl [Compound 117, 6-(1-(3-chloropyridin-2-yl)-3-(trifluoromethyl)-1H-pyrazole-5-carboxamido)-N-(cyanomethyl)-5-methylpyrazolo[1,5-a]pyridine-7-carboxamide] | – | > 70% | > 70%
7 | COc1cc(C(=O)Nc2c(C)cc3ccnn3c2C(=O)NC(C)C(F)(F)F)n(-c2ncccc2Cl)n1 (stereo not shown) [Compound 217, 6-(1-(3-chloropyridin-2-yl)-3-methoxy-1H-pyrazole-5-carboxamido)-5-methyl-N-(1,1,1-trifluoropropan-2-yl)pyrazolo[1,5-a]pyridine-7-carboxamide] | > 70% | – | –
8 | C=CCNC(=O)c1c(NC(=O)c2cc(N3CC(F)(F)C3)nn2-c2ncccc2Cl)c(C)cc2ccnn12 [Compound 86, N-allyl-6-(1-(3-chloropyridin-2-yl)-3-(3,3-difluoroazetidin-1-yl)-1H-pyrazole-5-carboxamido)-5-methylpyrazolo[1,5-a]pyridine-7-carboxamide] | > 70% | – | –
9 | CONC(=O)c1c(NC(=O)c2cc(N3CC(F)(F)C3)nn2-c2ncccc2Cl)c(C)cc2ccnn12 [Compound 84, 6-(1-(3-chloropyridin-2-yl)-3-(3,3-difluoroazetidin-1-yl)-1H-pyrazole-5-carboxamido)-N-methoxy-5-methylpyrazolo[1,5-a]pyridine-7-carboxamide] | – | > 70% | > 70%
10 | Cc1cc2ccnn2c(C(=O)NOC(C)C)c1NC(=O)c1cc(OCC(F)(F)F)nn1-c1ncccc1Cl [Compound 116, 6-(1-(3-chloropyridin-2-yl)-3-(2,2,2-trifluoroethoxy)-1H-pyrazole-5-carboxamido)-N-isopropoxy-5-methylpyrazolo[1,5-a]pyridine-7-carboxamide] | – | > 70% | > 70%
11 | COc1cc(C(=O)Nc2c(C)cc3ccnn3c2C(=O)NC2(C)CC2)n(-c2ncccc2Cl)n1 [Compound 219, 6-(1-(3-chloropyridin-2-yl)-3-methoxy-1H-pyrazole-5-carboxamido)-5-methyl-N-(1-methylcyclopropyl)pyrazolo[1,5-a]pyridine-7-carboxamide] | > 70% | – | –
12 | COc1cc(C(=O)Nc2c(Br)cc3ccnn3c2C(=O)NC(C)C)n(-c2ncccc2Cl)n1 [Compound 130, 5-bromo-6-(1-(3-chloropyridin-2-yl)-3-methoxy-1H-pyrazole-5-carboxamido)-N-isopropylpyrazolo[1,5-a]pyridine-7-carboxamide] | – | > 70% | > 70%
13 | Cc1cc2ccnn2c(C(=O)NC2C[S+]([O-])C2)c1NC(=O)c1cc(Br)nn1-c1ncccc1Cl (stereo not shown) [Compound 209, 6-(3-bromo-1-(3-chloropyridin-2-yl)-1H-pyrazole-5-carboxamido)-5-methyl-N-(1-oxidothietan-3-yl)pyrazolo[1,5-a]pyridine-7-carboxamide] | – | > 70% | > 70%
14 | COc1cc(C(=O)Nc2c(Cl)cc3ccnn3c2C(=O)NCC2CC2)n(-c2ncccc2Cl)n1 [Compound 131, 5-chloro-6-(1-(3-chloropyridin-2-yl)-3-methoxy-1H-pyrazole-5-carboxamido)-N-(cyclopropylmethyl)pyrazolo[1,5-a]pyridine-7-carboxamide] | – | > 70% | > 70%
15 | Cc1cc2ccnn2c(C(=O)NC(C)C(F)(F)F)c1NC(=O)c1cc(C(F)(F)F)nn1-c1ncccc1Cl (stereo not shown) [Compound 220, 6-(1-(3-chloropyridin-2-yl)-3-(trifluoromethyl)-1H-pyrazole-5-carboxamido)-5-methyl-N-(1,1,1-trifluoropropan-2-yl)pyrazolo[1,5-a]pyridine-7-carboxamide] | > 70% | – | –
16 | Cc1cc2ccnn2c(C(=O)NCC2CC2)c1NC(=O)c1cc(Cn2nnc(C(F)(F)F)n2)nn1-c1ncccc1Cl [Compound 171, 6-(1-(3-chloropyridin-2-yl)-3-((5-(trifluoromethyl)-2H-tetrazol-2-yl)methyl)-1H-pyrazole-5-carboxamido)-N-(cyclopropylmethyl)-5-methylpyrazolo[1,5-a]pyridine-7-carboxamide] | – | > 70% | > 70%
17 | CCC(C)CNC(=O)c1c(NC(=O)c2cc(OC)nn2-c2ncccc2Cl)c(C)cc2ccnn12 (stereo not shown) [Compound 199, 6-(1-(3-chloropyridin-2-yl)-3-methoxy-1H-pyrazole-5-carboxamido)-5-methyl-N-(2-methylbutyl)pyrazolo[1,5-a]pyridine-7-carboxamide] | – | > 70% | > 70%
18 | Cc1cc2ccnn2c(C(=O)NCCC(C)C)c1NC(=O)c1cc(Br)nn1-c1ncccc1Cl [Compound 206, 6-(3-bromo-1-(3-chloropyridin-2-yl)-1H-pyrazole-5-carboxamido)-N-isopentyl-5-methylpyrazolo[1,5-a]pyridine-7-carboxamide] | > 70% | – | –
19 | Cc1cc2ccnn2c(C(=O)NCC(F)(F)F)c1NC(=O)c1cc(OCC(F)(F)F)nn1-c1ncccc1Cl [Compound 114, 6-(1-(3-chloropyridin-2-yl)-3-(2,2,2-trifluoroethoxy)-1H-pyrazole-5-carboxamido)-5-methyl-N-(2,2,2-trifluoroethyl)pyrazolo[1,5-a]pyridine-7-carboxamide] | – | > 70% | > 70%
